Test results reported in ChEMBL document CHEMBL1150457, “-hydroxyamide derived aminodiols as potent inhibitors of hiv protease” (Bioorg Med Chem Lett, 1995).

Experiments:
[1] = system: Human immunodeficiency virus 1; assay: Concentration required to inhibit HIV-1 virus replication by 50% as determined by XTT; assay type: functional; conditions: read-out: ED50 (the source's name)
[2] = target: T1, Human immunodeficiency virus type 1 protease (Human immunodeficiency virus 1, UniProt Q72874); assay: Inhibition constant against HIV protease was determined
[3] = target: T1, Human immunodeficiency virus type 1 protease; assay: In vitro inhibition of HIV-1 protease.

Compound	EC50 ([1]; Human immunodeficiency virus 1) [nM]	Ki [2] [nM]	IC50 [3] [nM]	EC50 [1] [nM]
CC(C)(C)OC(=O)N[C@@H](Cc1ccccc1)[C@H](O)CNC[C@@H](O)[C@H](Cc1ccccc1)NC(=O)[C@@](C)(O)C(C)(C)C	60	24	40	
CC(C)(C)OC(=O)N[C@@H](Cc1ccccc1)[C@H](O)CNC[C@@H](O)[C@H](Cc1ccccc1)NC(=O)[C@@H](O)C(C)(C)C			1200	
CC(C)(C)CC(=O)N[C@@H](Cc1ccccc1)[C@H](O)CNC[C@@H](O)[C@H](Cc1ccccc1)NC(=O)OC(C)(C)C	1200			
CC(C)(C)OC(=O)N[C@@H](Cc1ccccc1)[C@H](O)CNC[C@@H](O)[C@H](Cc1ccccc1)NC(=O)[C@@H](O)c1ccccc1			> 10000	
CC(C)(C)OC(=O)N[C@@H](Cc1ccccc1)[C@H](O)CNC[C@@H](O)[C@H](Cc1ccccc1)NC(=O)[C@@](C)(O)c1ccccc1	1350		260	
CC(C)(C)OC(=O)N[C@@H](Cc1ccccc1)[C@H](O)CNC[C@@H](O)[C@H](Cc1ccccc1)NC(=O)C(C)(C)O	970		450	
CC(C)(C)OC(=O)N[C@@H](Cc1ccccc1)[C@H](O)CNC[C@@H](O)[C@H](Cc1ccccc1)NC(=O)OC(C)(C)C	80	100		
CC(C)(C)OC(=O)N[C@@H](Cc1ccccc1)[C@H](O)CNC[C@@H](O)[C@H](Cc1ccccc1)NC(=O)[C@H](O)C(C)(C)C	55		50	
CC(C)(C)OC(=O)N[C@@H](Cc1ccccc1)[C@H](O)CNC[C@@H](O)[C@H](Cc1ccccc1)NC(=O)[C@](C)(O)C(C)(C)C	1380		900	
CC(C)(C)OC(=O)N[C@@H](Cc1ccccc1)[C@H](O)CNC[C@@H](O)[C@H](Cc1ccccc1)NC(=O)[C@](C)(O)c1ccccc1			6500	
CC(C)(C)OC(=O)N[C@@H](Cc1ccccc1)[C@H](O)CNC[C@@H](O)[C@H](Cc1ccccc1)NC(=O)[C@H](O)c1ccccc1	650		320	
CC(C)(C)OC(=O)N[C@@H](Cc1ccccc1)[C@H](O)CNC[C@@H](O)[C@H](Cc1ccccc1)NC(=O)C(O)C(F)(F)F (single isomer, unassigned; isomer A)	60		40	
CC(C)(C)OC(=O)N[C@@H](Cc1ccccc1)[C@H](O)CNC[C@@H](O)[C@H](Cc1ccccc1)NC(=O)C(O)(CO)C(C)(C)C (single isomer, unassigned; isomer B)			10000	
CC(C)(C)OC(=O)N[C@@H](Cc1ccccc1)[C@H](O)CNC[C@@H](O)[C@H](Cc1ccccc1)NC(=O)C1(O)CCCC1(C)C (single isomer, unassigned; isomer B)			250	375
CC(C)(C)OC(=O)N[C@@H](Cc1ccccc1)[C@H](O)CNC[C@@H](O)[C@H](Cc1ccccc1)NC(=O)C(O)C(F)(F)F (stereo in doubt)			2200	
CC(C)(C)OC(=O)N[C@@H](Cc1ccccc1)[C@H](O)CNC[C@@H](O)[C@H](Cc1ccccc1)NC(=O)C(O)(CO)C(C)(C)C (stereo in doubt)	25		60	
CC(C)(C)OC(=O)N[C@@H](Cc1ccccc1)[C@H](O)CNC[C@@H](O)[C@H](Cc1ccccc1)NC(=O)C1(O)CCCC1(C)C (stereo in doubt)			15	30
CC(C)(C)OC(=O)N[C@@H](Cc1ccccc1)[C@H](O)CNC[C@@H](O)[C@H](Cc1ccccc1)NC(=O)C(C)(O)C(C)(C)CO (stereo in doubt; form 1)			120	110
CC(C)(C)OC(=O)N[C@@H](Cc1ccccc1)[C@H](O)CNC[C@@H](O)[C@H](Cc1ccccc1)NC(=O)C1(O)COCC1(C)C (stereo in doubt; form 1)			3500	
CC(C)(C)OC(=O)N[C@@H](Cc1ccccc1)[C@H](O)CNC[C@@H](O)[C@H](Cc1ccccc1)NC(=O)C(C)(O)C(C)(C)CO (stereo in doubt; form 2)	160		130	
CC(C)(C)OC(=O)N[C@@H](Cc1ccccc1)[C@H](O)CNC[C@@H](O)[C@H](Cc1ccccc1)NC(=O)C1(O)COCC1(C)C (stereo in doubt; form 2)	230		220	
